In patent publication US20090082337A1, “Compositions Comprising Quinolone and Methods for Treating or Controlling Infections” (priority 2007, published 2009):
Converted amounts (≈) assume the structure as drawn.

Test system: Ofloxacin-resistant Enterobacteriaceae
Assay: organism not typed
Type: cell-based

Row | Structure (SMILES) | MIC90 [µg/mL]
1 | N[C@@H]1CCCCN(c2c(F)cc3c(=O)c(C(=O)O)cn(C4CC4)c3c2Cl)C1 [Compound Having Formula IV] | 16
2 | CCn1cc(C(=O)O)c(=O)c2cc(F)c(N3CCNCC3)cc21 [Norfloxacin] | 128 (≈ 401 µM)
3 | CC1COc2c(N3CCN(C)CC3)c(F)cc3c(=O)c(C(=O)O)cn1c23 (stereo not drawn) [Ofloxacin, ofloxacin] | 64 (≈ 177 µM)
